Measurements reported in BindingDB's records for doi:10.1021/jm800245z (Merck Research Laboratories, 2008).

Target: Gag-Pol polyprotein (Human immunodeficiency virus type 1 group M subtype B (isolate HXB2), UniProt P04585)
Assay: Microtiter Plate Assay for Strand Transfer
Details: pH 7.8; 37 °C
Experimental: The microtiter plate assay for stand transfer was performed with an immobilized donor substrate and a target substrate biotinylated at the 3-prime end of each DNA strand. Integrase was first assembled with immobilized LTR oligonucleotides for 30 min. Inhibitors were added after assembly and washings. For the strand transfer reaction, it was initiated with the addition of the biotinylated target substrate. Strand transfer reaction mixtures were incubated for additional 30 min, and the strand transfer products were detected by using alkaline phosphatase-conjugated avidin (Boehringer Mannheim, Indianapolis, Ind.).

IC50: > 5 µM
Structure (SMILES): CNC(=O)c1nc(C(C)(C)NC(=O)C(=O)N(C)C)n(C)c(=O)c1O [N-{2-[5-hydroxy-1-methyl-4-(methylcarbamoyl)-6-oxo-1,6-dihydropyrimidin-2-yl]propan-2-yl}-N',N'-dimethylethanediamide]
